Test results taken from PMC3615092, “Identification, Design and Bio-Evaluation of Novel Hsp90 Inhibitors by Ligand-Based Virtual Screening” (PLoS ONE, 2013).
Where two headings read alike, the source gives them in different places.

Key:
[1] = target: T1, Hsp90 (Homo sapiens, UniProt P07900); assay: 3D-QSAR pharmacophore model Hypo1 (HypoGen) mapping and activity estimation
T1 construct: The region encoding full-length Hsp90 was subcloned into pET28a; inferred from the pET28a vector and Ni-NTA purification; made in house; host or cells: E. coli
Description: HypoGen attempts to develop SAR hypothesis models from a set of molecules for which activities (IC50, Ki, etc.) on a given biological target have been measured. Based on the chemical features of compounds in the training set, we selected the following chemical functions in the feature dictionary: hydrogen bond acceptor (HBA), hydrogen bond donor (HBD), hydrophobic (HY), and hydrophobic aromatic (HYAr) groups. […] Pharmacophore models were then generated by using 3D-QSAR Pharmacophore Generation protocol, and the top ten unique pharmacophore models were finally exported. […] All test set molecules were built and minimized as the training set molecules. […] The crystal conformation of the ligand were extracted from the complex and then overlapped onto the pharmacophore model by using the Ligand Pharmacophore Mapping protocol implemented in the Discovery Studio package. Virtual screening of commercial available databases forms one aspect of an efficiently approach to find novel and potential leads for further development. […] All database searching was performed by using the Best/Flexible search option. The compounds mapped all the critical features in Hypo1 were retained as hit. […] Compounds those passed all of the screening experiments were retained for molecular docking.

[2] = target: T1, Hsp90; design: method as in PMID 18020435, PMID 19610616, PMID 16213716; settings: cited from earlier work
[3] = ratio of estimated to tested activity or its negative inverse, training set
[4] = training set, read-out: IC50 (nM) Actual
[5] = scale of actual activity, test set, read-out: IC50 (nM) Actual Activity scale
[6] = test set, read-out: IC50 (nM) Actual
[7] = read-out: IC50 (nM) Actual Activity scale, scale of actual activity, test set
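For IC50 (nM) Actual Activity scale in this document: bins of literature IC50 values from a fluorescence polarization competitive binding assay.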

Structure (SMILES) | Errors [1, 3] | IC50 [2, 4] | IC50 [2, 5] | IC50 [2, 6] | Errors ([1]; test set) | IC50 [2, 7]
CCNC(=O)c1noc(-c2cc(C(C)C)c(O)cc2O)c1-c1ccc(CN2CCCCC2)cc1 [Compound 1] | −2.5 |  |  |  |  | 
CCNC(=O)c1cc2c(-c3cc(OCC(N)=O)c(Cl)cc3Cl)nc(N)nc2s1 [Compound 2] | +1.9 | 29 nM |  |  |  | 
CCNC(=O)c1[nH]nc(-c2cc(Cl)c(O)cc2O)c1-c1ccc(CN2CCOCC2)cc1 [Compound 3] | +1.2 | 37 nM |  |  |  | 
CNC(=O)c1[nH]nc(-c2cc(Cl)c(O)cc2O)c1C(=O)Nc1ccc(OC)cc1 [Compound 4] | −1.1 | 39 nM |  |  |  | 
C/C=C/C1=CC2=CC3=C(C(=O)CCCCC)C(=O)O[C@@]3(C)C(=O)C2=CO1 [Compound 5] | +5.7 | 40 nM |  |  |  | 
CCNC(=O)c1cc2c(-c3cc(OCCN(CC)CC)c(Cl)cc3Cl)nc(N)nc2s1 [Compound 6] | −1.7 |  |  |  |  | 
CCNC(=O)c1cc2c(-c3ccc(Cl)cc3Cl)nc(N)nc2s1 [Compound 8] | +1.1 |  |  |  |  | 
CCc1cc(-c2n[nH]c(C)c2C(=O)Nc2ccc3c(c2)OCCO3)c(O)cc1O [Compound 9] | +1.6 | 280 nM |  |  |  | 
O=S(=O)(Nc1ccc(O)c(-c2c(O)ccc3ccccc23)c1)c1ccc(Cl)cc1Cl [Compound 10] | +1.7 | 700 nM |  |  |  | 
CCCCn1c([S+]([O-])c2cccc(OC)c2)nc2c(N)ncnc21 (centres unmarked) [Compound 11] | −1 | 4700 nM |  |  |  | 
CCCCn1c(S(=O)(=O)c2cc(OC)cc(OC)c2Cl)nc2c(N)ncnc21 [Compound 12] | −1.6 | 4800 nM |  |  |  | 
O=S(=O)(Nc1ccc(O)c(-c2c(O)ccc3ccccc23)c1)c1ccc(Br)cc1 [Compound 13] | −2.7 | 6100 nM |  |  |  | 
CCc1ccc(S(=O)(=O)Nc2ccc(O)c(-c3c(O)ccc4ccccc34)c2)cc1 [Compound 14] | −1.7 | 6600 nM |  |  |  | 
O=C(Nc1ccccc1)c1c[nH]nc1-c1cc(Cl)c(O)cc1O [Compound 15] | −2.4 | 7100 nM |  |  |  | 
Oc1ccc(-c2noc3cc(O)ccc23)c(O)c1 [Compound 16] | +1.2 | 15000 nM |  |  |  | 
CSc1nc(N)nc(-c2ccccc2)n1 [Compound 17] | +2.2 | 20000 nM |  |  |  | 
CCC(C)c1cc(O)c(Cl)cc1-c1n[nH]cc1C(=O)Nc1ccc(NC(C)=O)cc1 (centres unmarked) [Compound 18] | −2.6 | 31000 nM |  |  |  | 
CCNC(=O)c1noc(-c2cc(C(C)C)c(O)cc2O)c1-c1ccc(CN(CC)CC)cc1 [Compound 19] |  |  | < 100 nM | 6 nM | −2.9 | 
CCNC(=O)c1noc(-c2cc(-c3ccccc3C)c(O)cc2O)c1-c1ccc(CN2CCCCC2)cc1 [Compound 20] |  |  | < 100 nM | 14 nM | −5.2 | 
CNC(=O)c1noc(-c2cc(C(C)(C)C)c(O)cc2O)c1-c1ccc(CN2CCOCC2)cc1 [Compound 21] |  |  | < 100 nM | 8 nM | −1.2 | 
CCNC(=O)c1noc(-c2cc(CCc3ccc(F)cc3)c(O)cc2O)c1-c1ccc(CN2CCOCC2)cc1 [Compound 22] |  |  | < 100 nM | 20 nM | −1.4 | 
CCN(CC)CCOc1cc(-c2nc(N)nc3sc(C(=O)NC4CC4)cc23)c(Cl)cc1Cl [Compound 23] |  |  |  | 64 nM | −2.0 | < 100 nM
CCNC(=O)c1cc2c(-c3cc(OCCNC4CCCCC4)c(Cl)cc3Cl)nc(N)nc2s1 [Compound 24] |  |  |  | 87 nM | −2.6 | < 100 nM
CCNC(=O)c1noc(-c2cc(-c3ccccc3F)c(O)cc2O)c1-c1ccc(CN2CCOCC2)cc1 [Compound 25] |  |  | < 100 nM | 39 nM | −1.2 | 
CCNC(=O)c1cc2c(-c3cc(OCCN4CCN(C)CC4)c(Cl)cc3Cl)nc(N)nc2s1 [Compound 26] |  |  |  | 102 nM | −2.9 | 100 to 10000 nM
CCNC(=O)c1cc2c(-c3cc(OCCN4CCCC4)c(Cl)cc3Cl)nc(N)nc2s1 [Compound 33] |  |  |  |  | 1 | 
